Data from patent US20240408169A1 (priority 2023, published 2024).
*1 amine or outer side, *2 acyl side, *3 side chain or, on linkers, in order; H or OH if unused. Where a SMILES comes first, the peptide text is derived from it. Bridges are numbered along the chain shown (N, C = ends). [ ]: non-standard residue; d: D form. The star is where a group is joined. X126 = CC(C)C(=O)N1[C@H]2COC[C@@H]1C=C(c1ccc(F)cc1C[C@@H](C(=O)[*:2])N(C)[*:1])C2; NMePhe(2-(4-MorPh),5-Cl) = CN[C@@H](Cc1cc(Cl)ccc1-c1ccc(N2CCOCC2)cc1)C(=O)O; X200 = CN([C@@H](Cc1cc(F)ccc1C1CCN(C(=O)C2CC2)CC1)C(=O)[*:2])[*:1]; X151 = CN([C@@H](Cc1cc(Cl)ccc1-c1cnn(C2CCC2)c1)C(=O)[*:2])[*:1]; NMehhhLys(Me) = CN([C@@H](CCCCCCCN(C)[*:3])C(=O)[*:2])[*:1]; X118 = Cc1cc(-c2ccc(Cl)cc2C[C@@H](C(=O)[*:2])N(C)[*:1])cnn1; X180 = CN([C@@H](Cc1cc(F)ccc1-c1cnn2c1CCC2)C(=O)[*:2])[*:1]; NMe(hhhLys) = CN([C@@H](CCCCCCCN[*:3])C(=O)[*:2])[*:1]; Cyclopropanecarbonyl(1-CF3) = O=C(C1(C(F)(F)F)CC1)*; cBuCO(3,3-F2-1-CF3) = O=C(C1(C(F)(F)F)CC(F)(F)C1)*; NMePhe(2,5-Cl2) = CN[C@@H](Cc1cc(Cl)ccc1Cl)C(=O)O; Pro(trans-4-F) = O=C(O)[C@@H]1C[C@@H](F)CN1; X201 = O=C(C1(C(F)F)CC(F)(F)C1)*; Gly(cPr) = N[C@H](C(=O)O)C1CC1

How the values were obtained:
CyclinE1/CDK2 = molecular target: T1, CyclinE1/CDK2 (Homo sapiens, UniProt P24864); test: Fluorescence Polarization (FP) competitive binding assay, Cyclin E1/Cdk2; details: 10 nM Cyclin E1/Cdk2, 2 nM FAM probe; average of 2-3 independent experiments; read-out: Cyclin E FP IC50;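 note: readings taken after two-hour equilibration at room temperature in HEPES buffer with NaCl, DTT, NP-40 and BSA, IC50 fitted from eight-concentration serial dilution series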
T1 construct: purchased Eurofins, discovery 14-475

OVCAR3 cells = test: MTT proliferation assay, OVCAR3; format: cell-based; details: 5 days compound exposure, 1:3 serial dilution starting at 10 μM;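 note: compound given as an 8- or 10-point series, one day after plating, with exposure covering roughly 3-4 cell doublings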
CyclinA2/CDK2 = molecular target: T2, CyclinA2/CDK2 (Homo sapiens, UniProt P20248); test: Fluorescence Polarization (FP) competitive binding assay, Cyclin A2/Cdk2; details: 8 nM Cyclin A2/Cdk2, 2 nM FAM probe; average of 2-3 independent experiments; read-out: Cyclin A FP IC50;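 note: plates equilibrated two hours at room temperature before polarization reading, IC50 fitted from eight-concentration compound titration curves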
T2 construct: purchased CRELUX Protein Services

CyclinB1/CDK1 = molecular target: T3, CyclinB1/CDK1 (Homo sapiens, UniProt P14635); test: Fluorescence Polarization (FP) competitive binding assay, Cyclin B1/Cdk1; details: 10 nM Cyclin B1/Cdk1, 2 nM FAM probe; average of 2-3 independent experiments; read-out: Cyclin B FP IC50;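 note: fluorescence polarization read after equilibration at room temperature, with IC50 taken from serially diluted dose-response curves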
T3 construct: purchased Eurofins, discovery 14-450

NCI-H1048 cells = test: MTT proliferation assay, NCI-H1048; format: cell-based; details: 5 days compound exposure, 1:3 serial dilution starting at 10 μM;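 note: Dose-response in 96-well plates over 8 or 10 concentration points, with exposure spanning 3-4 cell doublings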

Structure (SMILES): CC(C)C[C@@H]1NC(=O)[C@@H](N(C)C(=O)[C@@H](NC(=O)[C@@H]2C[C@@H](F)CN2C(=O)C2(C(F)F)CC(F)(F)C2)C2CC2)CCCCCCCN(C)C(=O)[C@H](Cc2cc(Cl)ccc2-c2ccc(N3CCOCC3)cc2)N(C)C1=O [Example 350] (X201-[Pro(trans-4-F)][Gly(cPr)][NMehhhLys(Me)]L[NMePhe(2-(4-MorPh),5-Cl)]; lactam 3-C)
- IC50 (CyclinE1/CDK2): 880 nM
- GI50 (OVCAR3 cells): 10 nM
- IC50 (CyclinA2/CDK2): 20 nM
- IC50 (CyclinB1/CDK1): 20 nM
- GI50 (NCI-H1048 cells): 10 nM

Structure (SMILES): CC(C)C[C@@H]1NC(=O)[C@@H](N(C)C(=O)[C@@H](NC(=O)[C@@H]2C[C@@H](F)CN2C(=O)C2(C(F)(F)F)CC(F)(F)C2)C2CC2)CCCCCCCNC(=O)[C@H](Cc2cc(F)ccc2C2=C[C@H]3COC[C@@H](C2)N3C(=O)C(C)C)N(C)C1=O [Example 326] ({cBuCO(3,3-F2-1-CF3)}-[Pro(trans-4-F)][Gly(cPr)][NMe(hhhLys)]L[X126]; lactam 3-C)
- IC50 (CyclinE1/CDK2): 150 nM
- GI50 (OVCAR3 cells): 10 nM
- IC50 (CyclinA2/CDK2): 20 nM
- IC50 (CyclinB1/CDK1): 20 nM
- GI50 (NCI-H1048 cells): 10 nM

Structure (SMILES): Cc1cc(-c2ccc(Cl)cc2C[C@H]2C(=O)N(C)CCCCCCC[C@H](N(C)C(=O)[C@@H](NC(=O)[C@@H]3C[C@@H](F)CN3C(=O)C3(C(F)(F)F)CC(F)(F)C3)C3CC3)C(=O)N[C@@H](CC(C)C)C(=O)N2C)cnn1 [Example 296] ({cBuCO(3,3-F2-1-CF3)}-[Pro(trans-4-F)][Gly(cPr)][NMehhhLys(Me)]L[X118]; lactam 3-C)
- IC50 (CyclinE1/CDK2): 2810 nM
- GI50 (OVCAR3 cells): 100 nM
- IC50 (CyclinA2/CDK2): 70 nM
- IC50 (CyclinB1/CDK1): 20 nM
- GI50 (NCI-H1048 cells): 70 nM

Structure (SMILES): CC(C)C[C@@H]1NC(=O)[C@@H](N(C)C(=O)[C@@H](NC(=O)[C@@H]2C[C@@H](F)CN2C(=O)C2(C(F)(F)F)CC(F)(F)C2)C2CC2)CCCCCCCN(C)C(=O)[C@H](Cc2cc(Cl)ccc2-c2cnn(C3CCC3)c2)N(C)C1=O [Example 112] ({cBuCO(3,3-F2-1-CF3)}-[Pro(trans-4-F)][Gly(cPr)][NMehhhLys(Me)]L[X151]; lactam 3-C)
- IC50 (CyclinE1/CDK2): 340 nM
- GI50 (OVCAR3 cells): 10 nM
- IC50 (CyclinA2/CDK2): 20 nM
- IC50 (CyclinB1/CDK1): 20 nM
- GI50 (NCI-H1048 cells): 10 nM

Structure (SMILES): CC(C)C[C@@H]1NC(=O)[C@@H](N(C)C(=O)[C@@H](NC(=O)[C@@H]2C[C@@H](F)CN2C(=O)C2(C(F)(F)F)CC2)C2CC2)CCCCCCCNC(=O)[C@H](Cc2cc(Cl)ccc2Cl)N(C)C1=O [Example 9] ({Cyclopropanecarbonyl(1-CF3)}-[Pro(trans-4-F)][Gly(cPr)][NMe(hhhLys)]L[NMePhe(2,5-Cl2)]; lactam 3-C)
- IC50 (CyclinE1/CDK2): 400 nM
- GI50 (OVCAR3 cells): 110 nM
- IC50 (CyclinA2/CDK2): 250 nM
- IC50 (CyclinB1/CDK1): 20 nM
- GI50 (NCI-H1048 cells): 80 nM

Structure (SMILES): CC(C)C[C@@H]1NC(=O)[C@@H](N(C)C(=O)[C@@H](NC(=O)[C@@H]2C[C@@H](F)CN2C(=O)C2(C(F)(F)F)CC(F)(F)C2)C2CC2)CC=CCCCCN(C)C(=O)[C@H](Cc2cc(Cl)ccc2-c2cncnc2)N(C)C1=O [Example 30]
- IC50 (CyclinE1/CDK2): 5050 nM
- GI50 (OVCAR3 cells): 140 nM
- IC50 (CyclinA2/CDK2): 240 nM
- IC50 (CyclinB1/CDK1): 20 nM
- GI50 (NCI-H1048 cells): 130 nM

Structure (SMILES): CC(C)C[C@@H]1NC(=O)[C@@H](N(C)C(=O)[C@@H](NC(=O)[C@@H]2C[C@@H](F)CN2C(=O)C2(C(F)(F)F)CC(F)(F)C2)C2CC2)CCCCCCCN(C)C(=O)[C@H](Cc2cc(F)ccc2C2CCN(C(=O)C3CC3)CC2)N(C)C1=O [Example 101] ({cBuCO(3,3-F2-1-CF3)}-[Pro(trans-4-F)][Gly(cPr)][NMehhhLys(Me)]L[X200]; lactam 3-C)
- IC50 (CyclinE1/CDK2): 470 nM
- GI50 (OVCAR3 cells): 30 nM
- IC50 (CyclinA2/CDK2): 30 nM
- IC50 (CyclinB1/CDK1): 20 nM
- GI50 (NCI-H1048 cells): 20 nM

Structure (SMILES): Cc1cc(-c2ccc(Cl)cc2C[C@H]2C(=O)NCCCCCCC[C@H](N(C)C(=O)[C@@H](NC(=O)[C@@H]3C[C@@H](F)CN3C(=O)C3(C(F)(F)F)CC(F)(F)C3)C3CC3)C(=O)N[C@@H](CC(C)C)C(=O)N2C)cnn1 [Example 295] ({cBuCO(3,3-F2-1-CF3)}-[Pro(trans-4-F)][Gly(cPr)][NMe(hhhLys)]L[X118]; lactam 3-C)
- IC50 (CyclinE1/CDK2): 3690 nM
- GI50 (OVCAR3 cells): 160 nM
- IC50 (CyclinA2/CDK2): 70 nM
- IC50 (CyclinB1/CDK1): 20 nM
- GI50 (NCI-H1048 cells): 80 nM

Structure (SMILES): CC(=O)N1CC=C(c2ccc(Cl)cc2C[C@H]2C(=O)NCCCC=CCC[C@H](N(C)C(=O)[C@@H](NC(=O)[C@@H]3C[C@@H](F)CN3C(=O)C3(C(F)(F)F)CC(F)(F)C3)C3CC3)C(=O)N[C@@H](CC(C)C)C(=O)N2C)CC1 [Example 267]
- IC50 (CyclinE1/CDK2): 1950 nM
- GI50 (OVCAR3 cells): 40 nM
- IC50 (CyclinA2/CDK2): 20 nM
- IC50 (CyclinB1/CDK1): 20 nM
- GI50 (NCI-H1048 cells): 50 nM

Structure (SMILES): CC(C)C[C@@H]1NC(=O)[C@@H](N(C)C(=O)[C@@H](NC(=O)[C@@H]2C[C@@H](F)CN2C(=O)C2(C(F)(F)F)CC(F)(F)C2)C2CC2)CCCCCCCN(C)C(=O)[C@H](Cc2cc(F)ccc2-c2cnn3c2CCC3)N(C)C1=O [Example 148] ({cBuCO(3,3-F2-1-CF3)}-[Pro(trans-4-F)][Gly(cPr)][NMehhhLys(Me)]L[X180]; lactam 3-C)
- IC50 (CyclinE1/CDK2): 310 nM
- GI50 (OVCAR3 cells): 10 nM
- IC50 (CyclinA2/CDK2): 30 nM
- IC50 (CyclinB1/CDK1): 20 nM
- GI50 (NCI-H1048 cells): 10 nM
